The assay deals with T1, Androgen Receptor (Homo sapiens, UniProt P10275).
T1 construct: endogenous in cells; host or cells: VCaP cells
T1 sequence (P10275 1-920): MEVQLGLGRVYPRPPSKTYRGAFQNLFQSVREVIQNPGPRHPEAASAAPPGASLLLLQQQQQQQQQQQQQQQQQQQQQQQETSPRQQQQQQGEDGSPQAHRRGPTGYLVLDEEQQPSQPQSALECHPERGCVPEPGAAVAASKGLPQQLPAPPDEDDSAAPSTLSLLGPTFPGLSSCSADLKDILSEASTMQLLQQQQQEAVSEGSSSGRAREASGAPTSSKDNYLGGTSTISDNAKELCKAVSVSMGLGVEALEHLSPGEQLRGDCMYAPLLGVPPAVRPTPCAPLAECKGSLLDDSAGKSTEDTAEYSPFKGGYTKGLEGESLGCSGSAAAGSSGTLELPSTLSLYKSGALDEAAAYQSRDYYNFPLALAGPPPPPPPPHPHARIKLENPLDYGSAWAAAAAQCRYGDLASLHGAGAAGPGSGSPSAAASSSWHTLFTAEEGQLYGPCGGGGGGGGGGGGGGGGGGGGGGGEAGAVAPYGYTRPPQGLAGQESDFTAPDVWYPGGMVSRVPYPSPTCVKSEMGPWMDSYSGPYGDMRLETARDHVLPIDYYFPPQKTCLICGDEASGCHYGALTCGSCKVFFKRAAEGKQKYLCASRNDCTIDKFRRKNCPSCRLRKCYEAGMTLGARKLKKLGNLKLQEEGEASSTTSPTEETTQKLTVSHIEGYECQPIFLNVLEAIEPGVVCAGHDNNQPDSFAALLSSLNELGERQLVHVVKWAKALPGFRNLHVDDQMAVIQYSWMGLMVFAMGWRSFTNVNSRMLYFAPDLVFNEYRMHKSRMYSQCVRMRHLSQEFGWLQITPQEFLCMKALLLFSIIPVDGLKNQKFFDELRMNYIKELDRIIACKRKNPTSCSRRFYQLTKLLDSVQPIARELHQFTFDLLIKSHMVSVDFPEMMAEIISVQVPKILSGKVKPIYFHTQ
As to the kind of experiment: Androgen Receptor ELISA assay (PathScan AR ELISA) in VCaP cells: AR degradation, Dmax and DC50. It is filed as cell-based. The conditions noted are these: VCaP cells (Table 32); for Dmax: VCaP, highest percentage of Androgen Receptor degradation observed, read-out: VCaP Dmax (%); for DC50: concentration that caused 50% Androgen Receptor degradation, read-out: VCaP DC50. In a few lines: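 After 24 h exposure of VCaP cells (charcoal-stripped serum, 0.1 nM R1881 agonist, 0.1% DMSO) to seven half-log compound concentrations, residual AR in lysates was measured by PathScan ELISA (TMB absorbance, 450 nm). Cells were plated at 30,000/well and grown at least 3 days beforehand.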
On the technique in general: An ELISA detects its analyte on a solid surface through an enzyme-linked reagent.

`Cc1ncoc1-c1ccc(CNC(=O)[C@@H]2C[C@@H](O)CN2C(=O)[C@@H](NC(=O)COCCCCCNc2ccc(C(=O)N[C@H]3C(C)(C)[C@H](Oc4ccc(C#N)c(Cl)c4)C3(C)C)cc2)C(C)(C)C)cc1` [Example 173, (2S,4R)-1-[(2S)-3,3-dimethyl-2-[2-({5-[(4-{[trans-3-(3-chloro-4-cyanophenoxy)-2,2,4,4-tetramethylcyclobutyl]carbamoyl}phenyl)amino]pentyl}oxy)acetamido]butanoyl]-4-hydroxy-N-{[4-(4-methyl-1,3-oxazol-5-yl)phenyl]methyl}pyrrolidine-2-carboxamide]: the Dmax was greater than 71% and the DC50 is less than 50 nM.
As to `Cc1ncsc1-c1ccc(CNC(=O)[C@@H]2C[C@@H](O)CN2C(=O)[C@@H](NC(=O)COCCCCNc2ccc(C(=O)N[C@H]3C(C)(C)[C@H](Oc4ccc(C#N)c(Cl)c4)C3(C)C)cc2)C(C)(C)C)cc1` [Example 175, (2S,4R)-1-[(2S)-3,3-dimethyl-2-(2-{4-[(4-{[trans-3-(3-chloro-4-cyanophenoxy)-2,2,4,4-tetramethylcyclobutyl]carbamoyl}phenyl)amino]butoxy}acetamido)butanoyl]-4-hydroxy-N-{[4-(4-methyl-1,3-thiazol-5-yl)phenyl]methyl}pyrrolidine-2-carboxamide], the Dmax is 51 to 70% and the DC50 was less than 50 nM.
For the molecule `Cc1ncsc1-c1ccc(CNC(=O)[C@@H]2C[C@@H](O)CN2C(=O)[C@@H](NC(=O)COCCCCCNc2ccc(C(=O)N[C@H]3C(C)(C)[C@H](Oc4ccc(C#N)c(Cl)c4)C3(C)C)cc2F)C(C)(C)C)cc1` [Example 176, (2S,4R)-1-[(2S)-2-[2-({5-[(2-fluoro-4-{[trans-3-(3-chloro-4-cyanophenoxy)-2,2,4,4-tetramethylcyclobutyl]carbamoyl}phenyl)amino]pentyl}oxy)acetamido]-3,3-dimethylbutanoyl]-4-hydroxy-N-{[4-(4-methyl-1,3-thiazol-5-yl)phenyl]methyl} pyrrolidine-2-carboxamide], the greatest degradation seen (Dmax) is greater than 71% and the DC50 is less than 50 nM.
As to `Cc1ncsc1-c1ccc([C@H](C)NC(=O)[C@@H]2C[C@@H](O)CN2C(=O)[C@@H](NC(=O)COCCCCNc2ccc(C(=O)N[C@H]3C(C)(C)[C@H](Oc4ccc(C#N)c(Cl)c4)C3(C)C)cc2)C(C)(C)C)cc1` [Example 177, (2S,4R)-1-[(2S)-3,3-dimethyl-2-(2-{4-[(4-{[trans-3-(3-chloro-4-cyanophenoxy)-2,2,4,4-tetramethylcyclobutyl]carbamoyl}phenyl)amino]butoxy}acetamido)butanoyl]-4-hydroxy-N-[(1S)-1-[4-(4-methyl-1,3-thiazol-5-yl)phenyl]ethyl]pyrrolidine-2-carboxamide], the greatest degradation seen (Dmax) was greater than 71% and the half-maximal degradation concentration (DC50) was less than 50 nM.
For `Cc1ncsc1-c1ccc([C@@H](C)NC(=O)[C@@H]2C[C@@H](O)CN2C(=O)[C@@H](NC(=O)COCCCCNc2ccc(C(=O)N[C@H]3C(C)(C)[C@H](Oc4ccc(C#N)c(Cl)c4)C3(C)C)cc2)C(C)(C)C)cc1` [Example 178, (2S,4R)-1-[(2S)-3,3-dimethyl-2-(2-{4-[(4-{[trans-3-(3-chloro-4-cyanophenoxy)-2,2,4,4-tetramethylcyclobutyl]carbamoyl}phenyl)amino]butoxy}acetamido)butanoyl]-4-hydroxy-N-[(1R)-1-[4-(4-methyl-1,3-thiazol-5-yl)phenyl]ethyl]pyrrolidine-2-carboxamide], the Dmax is 26 to 50% and the DC50 was less than 50 nM.
On to `Cc1ncoc1-c1ccc(CNC(=O)[C@@H]2C[C@@H](O)CN2C(=O)[C@@H](NC(=O)CCCOc2ccc(-c3ccc(C(=O)N[C@H]4C(C)(C)[C@H](Oc5ccc(C#N)c(Cl)c5)C4(C)C)cc3)cc2)C(C)(C)C)cc1` [Example 180], for which the Dmax is greater than 71% and the DC50 was less than 50 nM.
`Cc1ncoc1-c1ccc(CNC(=O)[C@@H]2C[C@@H](O)CN2C(=O)[C@@H](NC(=O)COCCOc2ccc(-c3ccc(C(=O)N[C@H]4C(C)(C)[C@H](Oc5ccc(C#N)c(Cl)c5)C4(C)C)cc3)cc2)C(C)(C)C)cc1` [Example 181]: the Dmax is greater than 71% and the DC50 is less than 50 nM.
Turning to `Cc1ncoc1-c1ccc(CNC(=O)[C@@H]2C[C@@H](O)CN2C(=O)[C@@H](NC(=O)COCc2ccc(Oc3ccc(C(=O)N[C@H]4C(C)(C)[C@H](Oc5ccc(C#N)c(Cl)c5)C4(C)C)cc3)cc2)C(C)(C)C)cc1` [Example 184, (2S,4R)-1-[(2S)-3,3-dimethyl-2-(2-{[4-(4-{[(1r,3r)-3-(3-chloro-4-cyanophenoxy)-2,2,4,4-tetramethylcyclobutyl]carbamoyl}phenoxy)phenyl]methoxy}acetamido)butanoyl]-4-hydroxy-N-{[4-(4-methyl-1,3-oxazol-5-yl)phenyl]methyl}pyrrolidine-2-carboxamide], the Dmax was greater than 71% and the DC50 is less than 50 nM.
The corresponding values for `Cc1ncsc1-c1ccc(CNC(=O)[C@@H]2C[C@@H](O)CN2C(=O)[C@@H](NC(=O)COCCOc2ccc(Oc3ccc(C(=O)N[C@H]4C(C)(C)[C@H](Oc5ccc(C#N)c(Cl)c5)C4(C)C)cc3)cc2)C(C)(C)C)cc1` [Example 185, (2S,4R)-1-[(2S)-3,3-dimethyl-2-(2-{2-[4-(4-{[trans-3-(3-chloro-4-cyanophenoxy)-2,2,4,4-tetramethylcyclobutyl]carbamoyl}phenoxy)phenoxy]ethoxy}acetamido)butanoyl]-4-hydroxy-N-{[4-(4-methyl-1,3-thiazol-5-yl)phenyl]methyl}pyrrolidine-2-carboxamide] are greater than 71% and less than 50 nM.
The corresponding values for `Cc1ncoc1-c1ccc(CNC(=O)[C@@H]2C[C@@H](O)CN2C(=O)[C@@H](NC(=O)COCCOc2ccc(Oc3ccc(C(=O)N[C@H]4C(C)(C)[C@H](Oc5ccc(C#N)c(Cl)c5)C4(C)C)cc3)cc2)C(C)(C)C)cc1` [Example 186, (2S,4R)-1-[(2S)-3,3-dimethyl-2-(2-{2-[4-(4-{[trans-3-(3-chloro-4-cyanophenoxy)-2,2,4,4-tetramethylcyclobutyl]carbamoyl}phenoxy)phenoxy]ethoxy}acetamido)butanoyl]-4-hydroxy-N-{[4-(4-methyl-1,3-oxazol-5-yl)phenyl]methyl}pyrrolidine-2-carboxamide] are greater than 71% and less than 50 nM.
As to `Cc1ncsc1-c1ccc(CNC(=O)[C@@H]2C[C@@H](O)CN2C(=O)[C@@H](NC(=O)CNC(=O)c2ccc(Oc3ccc(C(=O)N[C@H]4C(C)(C)[C@H](Oc5ccc(C#N)c(Cl)c5)C4(C)C)cc3)cc2)C(C)(C)C)cc1` [Example 187, (2S,4R)-1-[(2S)-3,3-dimethyl-2-(2-{[4-(4-{[trans-3-(3-chloro-4-cyanophenoxy)-2,2,4,4-tetramethylcyclobutyl]carbamoyl}phenoxy)phenyl] formamido}acetamido)butanoyl]-4-hydroxy-N-{[4-(4-methyl-1,3-thiazol-5-yl)phenyl]methyl} pyrrolidine-2-carboxamide], the Dmax is greater than 71% and the DC50 is less than 50 nM.
For `Cc1ncsc1-c1ccc(CNC(=O)[C@@H]2C[C@@H](O)CN2C(=O)[C@@H](NC(=O)CNCCCCCOc2ccc(C(=O)N[C@H]3C(C)(C)[C@H](Oc4ccc(C#N)c(Cl)c4)C3(C)C)cc2)C(C)(C)C)cc1` [Example 188], the greatest degradation seen (Dmax) is greater than 71% and the half-maximal degradation concentration (DC50) was less than 50 nM.
The corresponding values for `Cc1ncoc1-c1ccc(CNC(=O)[C@@H]2C[C@@H](O)CN2C(=O)[C@@H](NC(=O)CNCCCCCOc2ccc(C(=O)N[C@H]3C(C)(C)[C@H](Oc4ccc(C#N)c(Cl)c4)C3(C)C)cc2)C(C)(C)C)cc1` [Example 189, (2S,4R)-1-[(2S)-3,3-dimethyl-2-(2-{[5-(4-{[trans-3-(3-chloro-4-cyanophenoxy)-2,2,4,4-tetramethylcyclobutyl]carbamoyl}phenoxy)pentyl]amino}acetamido)butanoyl]-4-hydroxy-N-{[4-(4-methyl-1,3-oxazol-5-yl)phenyl]methyl)pyrrolidine-2-carboxamide] are 51 to 70% and less than 50 nM.

One may read the Dmax as the largest share of the target that was removed. What is called DC50 is the midpoint of the concentration-degradation curve.

The values above are taken from patent US11427548B2 (Arvinas Operations, Inc., priority 2015, dated 2022).
